Some results are limits rather than exact numbers.

Common to all, as to format: cell-based, Staphylococcus aureus
In assay [1] the test system is CA-MRSA USA300. The assay can be described thus: Checkerboard (FIC) analysis against CA-MRSA USA300. The following applies: for drug-drug interaction with cefuroxime (checkerboard secondary screen): in combination with cefuroxime. How it is done: Here a matrix of drug concentrations were tested in combinations at the concentrations shown (μg/mL). Greyscale indicates growth—darker is more growth, lighter is less growth. FIC index is a measure of synergy and is calculated as follows: FIC index=FIC (cefuroxime)+FIC (drug compound).
The combination of ticlopidine and cefuroxime was further tested as above against a variety of S. aureus strains as shown in Table 1 below.
FIC index=FIC (β-lactam)+FTC (ticlopidine). […]

Assay [2] relates to S. aureus (Newman strain). The assay can be described thus: Checkerboard (FIC) analysis against S. aureus Newman. The conditions noted are these: antibiotic in combination with ticlopidine; S. aureus (Newman strain).
In assay [3] the test system is MRSA. The assay can be described thus: Analogues in combination with cefuroxime against MRSA (FIC index). How it is done: A series of analogues were synthesized (as shown in Table 5) in which the thienopyridine ring was removed.
These were tested in combination with cefuroxime against MRSA and results are shown below (Table 6).

The mark [4] stands for this setting: antibiotic in combination with ticlopidine, CA-MRSA USA 300, FIC (β-lactam)+FIC (ticlopidine).
Setting [5] is: novel analogue in combination with cefuroxime, MRSA (Table 6).
Where [6] appears, read: compound in combination with cefuroxime, MRSA (Table 5).

A word on the MIC: it is the lowest concentration found to suppress growth. Consider `CC(=O)Oc1cc2c(s1)CCN(C(C(=O)C1CC1)c1ccccc1F)C2` (racemic) [Prasugrel, (RS)-5-[2-cyclopropyl-1-(2-fluorophenyl)-2-oxoethyl]-4,5,6,7-tetrahydrothieno[3,2-c]pyridin-2-yl acetate], for which, in assay [1] (Staphylococcus aureus, read-out: MIC thienopyridine), the MIC was greater than 128 µg/mL. Moreover, the FIC thienopyridine in assay [1] (in the presence of cefuroxime, CA-MRSA USA300 (Table 4)) is reported as 0.25. The “FIC index” value in assay [1] (thienopyridine in combination with cefuroxime, CA-MRSA USA300 (Table 4)) is “≦0.50”; in assay [1] (thienopyridine in combination with cefuroxime, CA-MRSA USA300 (Table 4), listed as prasugrel), no more than 0.50. On to `CC1(C)S[C@@H]2[C@H](NC(=O)[C@H](N)c3ccccc3)C(=O)N2[C@H]1C(=O)O` [Ampicillin], for which the FIC index entry in assay [2] is recorded as “≦1”; in assay [1] (setting [4]) it was “≦0.5”. For the molecule `CN1[C@@H]2CC[C@H]1C[C@@H](OC(c1ccccc1)c1ccccc1)C2` [Benztropine], in assay [1], the “drug-drug interaction with cefuroxime (checkerboard secondary screen)” value was “synergistic interactions”. `N[C@@H](C(=O)N[C@@H]1C(=O)N2C(C(=O)O)=C(Cl)CS[C@H]12)c1ccccc1` [Cefaclor]: the FIC index result in assay [2] is on record as “≦1”; in assay [1] (setting [4]), “≦0.5”. `CC1=C(C(=O)O)N2C(=O)[C@@H](NC(=O)[C@H](N)c3ccc(O)cc3)[C@H]2SC1` [Cefadroxil]: the FIC index entry in assay [1] (setting [4]) is “≦2”. On to `Cn1nnnc1SCC1=C(C(=O)O)N2C(=O)[C@@H](NC(=O)[C@H](O)c3ccccc3)[C@H]2SC1` [Cefamandole], for which the results for the FIC index entry in assay [2] and in assay [1] (setting [4]) were “≦0.75” and “≦0.63”, respectively. For the molecule `CO[C@@]1(NC(=O)CSCC#N)C(=O)N2C(C(=O)O)=C(CSc3nnnn3C)CS[C@@H]21` [Cefmetazole], the FIC index entry in assay [2] is listed as “≦0.75”. Turning to `CO/N=C(\C(=O)N[C@@H]1C(=O)N2C(C(=O)O)=C(COC(C)=O)CS[C@H]12)c1csc(N)n1` [Cefotaxime], the FIC index entry in assay [1] (setting [4]) is given as “≦0.5”.

With `CO[C@@]1(NC(=O)Cc2cccs2)C(=O)N2C(C(=O)O)=C(COC(N)=O)CS[C@@H]21` [Cefoxitin], the FIC index entry is given as “≦0.75” in assay [2] and “≦0.5” in assay [1] (setting [4]). For `NC(=O)c1cc[n+](CC2=C(C(=O)O)N3C(=O)[C@@H](NC(=O)[C@@H](c4ccccc4)S(=O)(=O)[O-])[C@H]3SC2)cc1` [Cefsulodin] the same measures were “≦1” and “≦2”. Regarding `CC(C)(O/N=C(\C(=O)N[C@@H]1C(=O)N2C(C(=O)[O-])=C(C[n+]3ccccc3)CS[C@H]12)c1csc(N)n1)C(=O)O` [Ceftazidime], the FIC index entry was “≦1” in assay [2] and “≦2” in assay [1] (setting [4]). As for `CO/N=C(\C(=O)N[C@@H]1C(=O)N2C(C(=O)O)=CCS[C@H]12)c1csc(N)n1` [Ceftizoxime], the FIC index entry in assay [1] (setting [4]) is reported as “≦0.5”.

With `CO/N=C(\C(=O)N[C@@H]1C(=O)N2C(C(=O)O)=C(COC(C)=O)CS[C@H]12)c1csc(N)n1` [Ceftoxamine], in assay [2], the FIC index result was “≦1”. `CC1=C(C(=O)O)N2C(=O)[C@@H](NC(=O)[C@H](N)c3ccccc3)[C@H]2SC1` [Cephalexin]: the FIC index result in assay [2] is reported as “≦1”; in assay [1] (setting [4]), “≦0.75”.

Take `CC(=O)OCC1=C(C(=O)O)N2C(=O)[C@@H](NC(=O)CCC[C@@H](N)C(=O)O)[C@H]2SC1` [Cephalosporin C]: in assay [2], the FIC index entry is “≦0.75”. `CC(=O)OCC1=C(C(=O)O)N2C(=O)[C@@H](NC(=O)Cc3cccs3)[C@H]2SC1` [Cephalothin]: the FIC index result in assay [1] (setting [4]) is on record as “≦0.5”. Same read-out and setting: as for `CC1=C(C(=O)O)N2C(=O)[C@@H](NC(=O)[C@H](N)C3=CCC=CC3)[C@H]2SC1` [Cephradine], the entry is “≦2”.

Turning to `O=C(O)c1cn(C2CC2)c2cc(N3CCNCC3)c(F)cc2c1=O` [Ciprofloxacin], the FIC index result in assay [2] is “≦2”. The same measure, in the same setting: as for `CC[C@H]1OC(=O)[C@H](C)[C@@H](O[C@H]2C[C@@](C)(OC)[C@@H](O)[C@H](C)O2)[C@H](C)[C@@H](O[C@@H]2O[C@H](C)C[C@H](N(C)C)[C@H]2O)[C@](C)(OC)C[C@@H](C)C(=O)[C@H](C)[C@@H](O)[C@]1(C)O` [Clarithromycin], the entry is “≦2”. Consider `Cc1onc(-c2ccccc2Cl)c1C(=O)N[C@@H]1C(=O)N2[C@@H]1SC(C)(C)[C@@H]2C(=O)O` [Cloxacillin], for which the FIC index entry in assay [1] (setting [4]) is “≦0.5”. For `Clc1ccc2c(c1)CCN(Cc1ccccc1Cl)C2` [Compound 1-novel, 6-Chloro-2-(2-chloro-benzyl)-1,2,3,4-tetrahydro-isoquinoline], the “FIC index” value in assay [3] (setting [5]) is on record as “≦2”.

Turning to `c1cc2c(s1)CCNC2` [Compound 2, 4,5,6,7-Tetrahydro-thieno[3,2-c]pyridine], the “FIC index” value in assay [3] (setting [6]) is listed as “≦2”. `Oc1ccc2c(c1)CN(Cc1ccccc1Cl)CC2` [Compound 2-novel, 2-(2-Chloro-benzyl)-1,2,3,4-tetrahydro-isoquinolin-7-ol]: the “FIC index” value in assay [3] (setting [5]) was “≦2”. `Clc1ccccc1CN1CCc2ccccc2C1` [Compound 3, 2-(2-Chloro-benzyl)-1,2,3,4-tetrahydro-isoquinoline]: in assay [3] (setting [6]), the “FIC index” value was “≦0.125”.

As for `c1ccc2c(c1)CCN(Cc1ccc3ccccc3c1)C2` [Compound 3-novel, 2-Naphthalen-2-ylmethyl-1,2,3,4-tetrahydro-isoquinoline], in assay [3] (setting [5]), the “FIC index” value is recorded as “≦0.312”. As for `Clc1cccc(CN2CCc3ccccc3C2)c1` [Compound 4, 2-(3-Chloro-benzyl)-1,2,3,4-tetrahydro-isoquinoline], in assay [3] (setting [6]), the “FIC index” value is “≦2”. With `O=C(O)C(c1ccccc1Cl)N1CCc2ccccc2C1` (stereo not shown) [Compound 4-novel, (2-Chloro-phenyl)-(3,4-dihydro-1H-isoquinolin-2-yl)-acetic acid], the “FIC index” value in assay [3] (setting [5]) was “≦2”.

In the case of `Clc1ccc(CN2CCc3ccccc3C2)cc1` [Compound 5, 2-(4-Chloro-benzyl)-1,2,3,4-tetrahydro-isoquinoline], in assay [3] (setting [6]), the “FIC index” value is “≦2”. Still for that read-out and setting: as for `c1ccc(CN2CCc3ccccc3C2)cc1` [Compound 6, 2-Benzyl-1,2,3,4-tetrahydro-isoquinoline], the entry is “≦0.625”; as for `c1ccc2c(c1)CCN(Cc1ccncc1)C2` [Compound 7, 2-Pyridin-4-ylmethyl-1,2,3,4-tetrahydro-isoquinoline], “≦2”.

On to `N[C@@H]1CONC1=O` [D-cycloserine], for which the FIC index result in assay [2] is on record as “≦2”. Same read-out and setting: as for `CCCCCCCCCC(=O)N[C@@H](Cc1c[nH]c2ccccc12)C(=O)N[C@H](CC(N)=O)C(=O)N[C@@H](CC(=O)O)C(=O)N[C@@H]1C(=O)NCC(=O)N[C@@H](CCCN)C(=O)N[C@@H](CC(=O)O)C(=O)N[C@H](C)C(=O)N[C@@H](CC(=O)O)C(=O)NCC(=O)N[C@H](CO)C(=O)N[C@@H]([C@H](C)CC(=O)O)C(=O)N[C@@H](CC(=O)c2ccccc2N)C(=O)O[C@@H]1C` [Daptomycin], the entry is “≦2”; as for `CC[C@H]1OC(=O)[C@H](C)[C@@H](O[C@H]2C[C@@](C)(OC)[C@@H](O)[C@H](C)O2)[C@H](C)[C@@H](O[C@@H]2O[C@H](C)C[C@H](N(C)C)[C@H]2O)[C@](C)(O)C[C@@H](C)C(=O)[C@H](C)[C@@H](O)[C@]1(C)O` [Erythromycin], “≦2”. On the same count and under the same terms, the same measure for `C[C@@H]1O[C@@H]1P(=O)(O)O` [Fosfomycin]: “≦0.5”; for `C[C@H]1COc2c(N3CCN(C)CC3)c(F)cc3c(=O)c(C(=O)O)cn1c23` [Levofloxacin]: “≦2”. On to `C[C@@H](O)[C@H]1C(=O)N2C(C(=O)O)=C(S[C@@H]3CN[C@H](C(=O)N(C)C)C3)[C@H](C)[C@H]12` [Meropenem], for which the FIC index result in assay [1] (setting [4]) is “≦0.75”. Regarding `COc1cccc(OC)c1C(=O)N[C@@H]1C(=O)N2[C@@H]1SC(C)(C)[C@@H]2C(=O)O` [Methicillin], the FIC index entry in assay [2] is listed as “≦1”; in assay [1] (setting [4]) it was “≦0.63”. For `CCOc1ccc2ccccc2c1C(=O)N[C@@H]1C(=O)N2[C@@H]1SC(C)(C)[C@@H]2C(=O)O` [Nafcillin] the same measures were “≦1” and “≦0.5”. The corresponding values for `Cc1onc(-c2ccccc2)c1C(=O)N[C@@H]1C(=O)N2[C@@H]1SC(C)(C)[C@@H]2C(=O)O` [Oxacillin] are “≦0.63” and “≦0.5”. For the molecule `CC1(C)S[C@@H]2[C@H](NC(=O)Cc3ccccc3)C(=O)N2[C@H]1C(=O)O` [Penicillin G], in assay [1] (setting [4]), the FIC index entry is on record as “≦0.5”. `CCN1CCN(C(=O)N[C@@H](C(=O)N[C@@H]2C(=O)N3[C@@H]2SC(C)(C)[C@@H]3C(=O)O)c2ccccc2)C(=O)C1=O` [Piperacillin]: the values for the FIC index result in assay [2] and in assay [1] (setting [4]) were “≦0.63” and “≦0.5”, respectively. Turning to `NC[C@H]1O[C@H](O[C@H]2[C@H](O)[C@@H](O[C@H]3O[C@H](CO)[C@@H](O)[C@H](N)[C@H]3O)[C@H](N)C[C@@H]2N)[C@H](N)C[C@@H]1O` [Tobramycin], in assay [2], the FIC index result was “≦2”. Still for that read-out and setting: the same measure for `COc1cc(Cc2cnc(N)nc2N)cc(OC)c1OC` [Trimethoprim]: “≦2”; for `CN[C@H](CC(C)C)C(=O)N[C@H]1C(=O)N[C@@H](CC(N)=O)C(=O)N[C@H]2C(=O)N[C@H]3C(=O)N[C@H](C(=O)N[C@H](C(=O)O)c4cc(O)cc(O)c4-c4cc3ccc4O)[C@H](O)c3ccc(c(Cl)c3)Oc3cc2cc(c3O[C@@H]2O[C@H](CO)[C@@H](O)[C@H](O)[C@H]2O[C@H]2C[C@](C)(N)[C@H](O)[C@H](C)O2)Oc2ccc(cc2Cl)[C@H]1O` [Vancomycin]: “≦2”.

Consider `CN(C)CCC(c1ccc(Cl)cc1)c1ccccn1` (stereo not shown) [chlorpheniramine], for which the “drug-drug interaction with cefuroxime (checkerboard secondary screen)” value in assay [1] is listed as “synergistic interactions”. Regarding Polymyxin, the FIC index entry in assay [2] is reported as “≦0.5”. With Tunicamycin, the FIC index entry in assay [2] is recorded as “≦0.75”.

For the origin of these results see US20140088069A1, “NOVEL ANTIBACTERIAL COMBINATION THERAPY” (priority 2011, published 2014).
